How the values were obtained:
serotonin reuptake = conditions: cited from earlier work
dopamine reuptake = conditions: cited from earlier work
[1] = tested on: static allodynia in the CCI rat model; assay: Static allodynia (von Frey hairs) in the chronic constriction injury (CCI) rat model of neuropathic pain; type: in vivo; conditions: CCI rats; for paw withdrawal threshold (PWT), reversal compared to the vehicle treated group: single administration, peak effect 1 h post administration, median [LQ;UQ], 6 rats per group, CCI baseline 2 g; for anti-allodynic effect following single administration: static allodynia, (S,S)-reboxetine 1-3-10-30 mg/kg IP, Compound A 3-10-30 mg/kg SC
Description: Male Sprague Dawley rats (175-200 g at time of surgery), obtained from Charles River, Margate, U.K.) were housed in groups of 3-6. All animals were kept under a 12 h light/dark cycle (lights on at 07 h 00 min) with food and water ad libitum. All experiments were carried out by an observer blind to drug treatments. Animals were placed in an anaesthetic chamber and anaesthetised with a 2% isofluorane O2 mixture. The right hind thigh is shaved and swabbed with 1% iodine. Animals were then transferred to a homeothermic blanket for the duration of the procedure and anaesthesia maintained during surgery via a nose cone. The skin was cut along the line of the thigh bone. The common sciatic nerve was exposed at the middle of the thigh by blunt dissection through biceps femoris. Proximal to the sciatic trifurcation, about 7 mm of nerve was freed by inserting forceps under the nerve and the nerve gently lifted out of the thigh. The forceps were gently opened and closed several times to aid clearance of the fascia from the nerve. Suture was pulled under the nerve using forceps and tied in a simple knot until slight resistance was felt and then double knotted. The procedure was repeated until 4 ligatures (4-0 silk) were tied loosely around the nerve with approx 1 mm spacing. The incision was closed in layers and the wound treated with topical antibiotics. Animals were habituated to test cages prior to the assessment of allodynia. Static allodynia was evaluated by application of von Frey hairs (Stoelting, Wood Dale, Ill., USA) in ascending order of force (0.7, 1.2, 1.4, 2, 4, 6, 8, 10, 15 and 26 grams) to the plantar surface of hind paws. […] Once a withdrawal response to a von Frey hair was established, the paw was re-tested, starting with the filament below the one that produced a withdrawal, and subsequently with the remaining filaments in descending force sequence until no withdrawal occurred. The highest force of 26 g lifted the paw as well as eliciting a response, thus represented the cut off point. Each animal had both hind paws tested in this manner. The lowest amount of force required to elicit a response was recorded as paw withdrawal threshold (PWT) in grams. Static allodynia was defined as present if animals responded to a stimulus of, or less than, 4 g, which is innocuous in normal rats. […] Static allodynia was graphically represented as median [LQ;UQ] in a logarithmic scale and data analysed by Kruskall-Wallis test for non-parametric results, followed by Mann-Whitney's U test vs vehicle group for each time point, using Prism Software version 3 (GraphPad, San Diego, USA). […] Data are the peak effects (1 h post administration) for each compound and doses expressed as median [LQ; […] In this specific case it corresponds to the Compound A dose-response line.

norepinephrine reuptake = conditions: as disclosed in WO-A-01/01973; cited from earlier work

| SMILES | serotonin reuptake inhibition (serotonin reuptake) | dopamine reuptake inhibition (dopamine reuptake) | paw withdrawal threshold (PWT), reversal compared to the vehicle treated group ([1]; 30 mg/kg IP (free base)) [g] | anti-allodynic effect following single administration [1] | selectivity for the inhibition of norepinephrine reuptake over the inhibition of serotonin reuptake (norepinephrine reuptake) | paw withdrawal threshold (PWT), reversal compared to the vehicle treated group ([1]; 30 mg/kg SC) [g] |
| --- | --- | --- | --- | --- | --- | --- |
| CCOc1ccccc1OC(c1ccccc1)C1CNCCO1 (racemic) [Reboxetine, (R,R/S,S)-(2-[(2-ethoxyphenoxy)(phenyl)methyl]morpholine)] | only marginal serotonin reuptake inhibition | no dopamine reuptake inhibition | – | – | – | – |
| CCOc1ccccc1O[C@@H](c1ccccc1)[C@@H]1CNCCO1 [(S,S)-reboxetine] | – | – | 6 | dose dependent anti-allodynic effect | greatly enhanced selectivity | – |
| CCCOc1ccc(S(=O)(=O)N2CCN(CC)CC2)cc1-c1nc2c(CC)n(Cc3ccccn3)nc2c(=O)[nH]1 [Compound A, 3-ethyl-5-[5-(4-ethylpiperazin-1-ylsulphonyl)-2-n-propoxyphenyl]-2-(pyridin-2-yl)methyl-2,6-dihydro-7H-pyrazolo[4,3-d]pyrimidin-7-one] | – | – | – | dose dependent anti-allodynic effect | – | 6 |

Reference: patent US20090227562A1, “Combination of a Selective Noradrenaline Reuptake Unhibitor and a PDEV Inhibitor” (Pfizer Inc., priority 2004, published 2009)
